US7393848B2, “Certain heterocyclic substituted imidazo[1,2-A]pyrazin-8-ylamines and methods of inhibition of Bruton's tyrosine kinase by such compounds” (CGI Pharmaceuticals, Inc., priority 2003, dated 2008)
pIC50: −log10 of the molar value.

Target: T1, full length human wildtype Btk (Homo sapiens, UniProt Q06187)
T1 construct: V5 (C); 6xHis (C); made in house; host or cells: Sf9 insect cells (baculovirus, pFastBac / Bac-to-Bac)
Assay: Biochemical Btk Assay (time-resolved fluorescence kinase assay)
Details: 40 μM ATP, 1 hour at room temperature; read-out: IC50 value in the Btk biochemical assay of Example 7
Method: A generalized procedure for one standard biochemical Btk Kinase Assay used to test compounds disclosed in this application is as follows.
A master mix minus Btk enzyme is prepared containing 1× Cell Signaling kinase buffer (25 mM Tris-HCl, pH 7.5, 5 mM […]-glycerophosphate, 2 mM dithiothreitol, 0.1 mM Na3VO4, 10 mM MgCl2), 0.5 μM Promega PTK Biotinylated peptide substrate 2, and 0.01% BSA. A master mix plus Btk enzyme is prepared containing 1× Cell Signaling kinase buffer, 0.5 μM PTK Biotinylated peptide substrate 2, 0.01% BSA, and 100 ng/well (0.06 mU/well) Btk enzyme. Btk enzyme is prepared as follows: full length human wildtype Btk (accession number NM-000061) with a C-terminal V5 and 6× His tag was subcloned into pFastBac vector for making baculovirus carrying this epitope-tagged Btk. […] A quantity of 1.25 μL of compounds in 5% DMSO is transferred to a 96-well ½ area Costar polystyrene plate. […] A quantity of 18.75 μL of master mix minus enzyme (as a negative control) and master mix plus enzyme is transferred to appropriate wells in 96-well ½ area costar polystyrene plate. […] The plate is read using time-resolved fluorescence with a Perkin Elmer Envision using excitation filter 330 nm, emission filter 665 nm, and 2nd emission filter 615 nm. IC50 values are subsequently calculated.

T1 sequence (Q06187 whole entry): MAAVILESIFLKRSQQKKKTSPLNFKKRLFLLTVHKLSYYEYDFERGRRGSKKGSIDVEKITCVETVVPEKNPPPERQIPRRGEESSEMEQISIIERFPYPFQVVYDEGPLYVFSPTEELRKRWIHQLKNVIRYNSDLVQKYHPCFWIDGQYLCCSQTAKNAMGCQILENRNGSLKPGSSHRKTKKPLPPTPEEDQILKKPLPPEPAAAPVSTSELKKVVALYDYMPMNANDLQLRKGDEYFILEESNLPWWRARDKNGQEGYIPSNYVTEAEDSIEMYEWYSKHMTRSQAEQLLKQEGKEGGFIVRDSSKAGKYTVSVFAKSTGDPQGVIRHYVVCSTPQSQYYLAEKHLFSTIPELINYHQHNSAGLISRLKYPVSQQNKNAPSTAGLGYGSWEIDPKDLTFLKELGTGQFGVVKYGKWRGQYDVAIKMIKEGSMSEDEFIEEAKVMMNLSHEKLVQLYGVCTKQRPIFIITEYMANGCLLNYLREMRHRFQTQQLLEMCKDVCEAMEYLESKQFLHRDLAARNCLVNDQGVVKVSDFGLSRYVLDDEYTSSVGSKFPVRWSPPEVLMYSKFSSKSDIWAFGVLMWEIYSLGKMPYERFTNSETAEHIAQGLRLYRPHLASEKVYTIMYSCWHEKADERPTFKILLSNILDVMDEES

pIC50: > 6.00
Compound: CC(C)(C)c1ccc(C(=O)Nc2cccc(-c3cn4ccnc4c(Nc4ccc5[nH]ncc5c4)n3)c2)cc1 [Example 6]
